Results as given in patent publication US8815881B2 (Hoffmann-La Roche Inc., priority 2010, dated 2014).

Target: endogenous cellular BACE2 in the Ins1e rat cell line (Rattus norvegicus (Rat), UniProt Q6IE75)
Assay: Assay for BACE inhibition by measuring cellular TMEM27 cleavage (ELISA of shed hTMEM27 from INS-TMEM27 cells)
Format: cell-based
Conditions: assay a): cellular TMEM27 cleavage, INS-TMEM27 cells (superscript a)
Source text: a) Assay for BACE Inhibition by Measuring Cellular TMEM27 Cleavage:
The assay uses the principle of inhibition of human TMEM27 cleavage by endogenous cellular BACE2 in the Ins1e rat cell line and shedding from the cell surface into the culture medium, followed by detection in an ELISA assay. Inhibition of BACE2 prevents the cleavage and shedding in a dose-dependent manner.
The stable cell line “INS-TMEM27” represents an INS1e-derived cell line with inducible expression (using the TetOn system) of full-length hTMEM27 in a doxycycline-dependent manner. The cells are cultured throughout the experiment in RPMI1640+Glutamax (Invitrogen) Penicillin/Streptomycin, 10% Fetal bovine serum, […], […], 100 micrograms/ml G418 and 100 microgram/ml hygromycin and are grown inadherent culture at 37° C. in a standard CO2 cell culture incubator.
INS-TMEM27 cells are seeded in 96-well plates. After 2 days in culture, BACE2 inhibitor is added in a range of concentrations as required by the assay and after a further two hours, doxycycline is added to a final concentration of 500 ng/ml. The cells are incubated for a further 46 hours and the supernatant harvested for detection of shed TMEM27.
An ELISA assay (using a pair of mouse anti-human-TMEM27 antibodies, raised against the extracellular domain of TMEM27) is used for detection of TMEM27 in the culture medium. An EC50 for BACE2 inhibition is calculated using the ELISA readout for each inhibitor concentration with standard curve-fitting software such as XLFit for the Excel spreadsheet program.

endogenous cellular BACE2 in the Ins1e rat cell line, sequence (Q6IE75 63-514): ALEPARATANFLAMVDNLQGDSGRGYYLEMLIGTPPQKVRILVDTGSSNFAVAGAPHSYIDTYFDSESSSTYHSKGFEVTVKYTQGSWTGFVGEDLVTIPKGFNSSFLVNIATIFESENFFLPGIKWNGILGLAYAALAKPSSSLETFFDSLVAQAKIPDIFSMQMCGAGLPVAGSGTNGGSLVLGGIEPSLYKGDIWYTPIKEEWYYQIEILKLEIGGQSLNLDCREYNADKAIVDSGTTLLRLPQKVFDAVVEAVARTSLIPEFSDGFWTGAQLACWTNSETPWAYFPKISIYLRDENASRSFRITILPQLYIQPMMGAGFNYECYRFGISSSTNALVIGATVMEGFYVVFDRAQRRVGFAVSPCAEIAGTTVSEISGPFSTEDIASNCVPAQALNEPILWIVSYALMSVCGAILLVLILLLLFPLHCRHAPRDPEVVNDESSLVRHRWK

| Structure (SMILES) | IC50 |
| --- | --- |
| CCOC(=O)CC1CCC(Nc2ccc(F)c([C@@]3(C)N=C(N)N(C)C(=O)C3(C)C)c2)C1(C)C (stereo partly drawn) [Example 98, {3-[3-((S)-2-Amino-1,4,5,5-tetramethyl-6-oxo-1,4,5,6-tetrahydro-pyrimidin-4-yl)-4-fluoro-phenylamino]-2,2-dimethyl-cyclopentyl}-acetic acid ethyl ester] | 57 nM |
| CN1C(=O)C(C)(C)[C@@](C)(c2cc(NCC3CCCOC3)ccc2F)N=C1N (stereo partly drawn) [Example 90, (S)-2-Amino-6-{2-fluoro-5-[(tetrahydro-pyran-3-ylmethyl)-amino]-phenyl}-3,5,5,6-tetramethyl-5,6-dihydro-3H-pyrimidin-4-one] | 467 nM |
| CN1C(=O)C(C)(C)[C@@](C)(c2cc(Nc3cccc4c3OCC4)ccc2F)N=C1N [Example 157, (S)-2-Amino-6-(5-(2,3-dihydrobenzofuran-7-ylamino)-2-fluorophenyl)-3,5,5,6-tetramethyl-5,6-dihydropyrimidin-4(3H)-one] | 654 nM |
| CN1C(=O)C(C)(C)[C@@](C)(c2cc(NC3COC3)ccc2F)N=C1N [Example 132, (S)-2-Amino-6-[2-fluoro-5-(oxetan-3-ylamino)-phenyl]-3,5,5,6-tetramethyl-5,6-dihydro-3H-pyrimidin-4-one] | 54 nM |
| CN1C(=O)C(C)(C)[C@@](C)(c2cc(NC3CCC(c4ccccc4)C3)ccc2F)N=C1N (stereo partly drawn) [Example 33, (6S)-2-Amino-6-(2-fluoro-5-(3-phenylcyclopentylamino)phenyl)-3,5,5,6-tetramethyl-5,6-dihydropyrimidin-4(3H)-one] | 29 nM |
| CN1C(=O)C(C)(C)[C@@](C)(c2cc(Nc3ccccc3)ccc2F)N=C1N [Example 48, (S)-2-amino-6-(2-fluoro-5-(phenylamino)phenyl)-3,5,5,6-tetramethyl-5,6-dihydropyrimidin-4(3H)-one] | 42 nM |
| COC(=O)CC1CCC(Nc2ccc(F)c([C@@]3(C)N=C(N)N(C)C(=O)C3(C)C)c2)C1 (stereo partly drawn) [Example 95, {3-[3-((S)-2-Amino-1,4,5,5-tetramethyl-6-oxo-1,4,5,6-tetrahydro-pyrimidin-4-yl)-4-fluoro-phenylamino]-cyclopentyl}-acetic acid methyl ester] | 406 nM |
| CC(Nc1ccc(F)c([C@@]2(C)N=C(N)N(C)C(=O)C2(C)C)c1)c1ncccn1 (stereo partly drawn) [Example 80, (S)-2-Amino-6-[2-fluoro-5-(1-pyrimidin-2-yl-ethylamino)-phenyl]-3,5,5,6-tetramethyl-5,6-dihydro-3H-pyrimidin-4-one] | 44 nM |
| CN1C(=O)C(C)(C)[C@@](C)(c2cc(NC(=O)C(O)(C(F)(F)F)C(F)(F)F)ccc2F)N=C1N [Example 148, (S)—N-(3-(2-amino-1,4,5,5-tetramethyl-6-oxo-1,4,5,6-tetrahydropyrimidin-4-yl)-4-fluorophenyl)-3,3,3-trifluoro-2-hydroxy-2-(trifluoromethyl)propanamide] | 497 nM |
| CN1C(=O)C(C)(C)[C@@](C)(c2cc(NC3CCc4cc(F)ccc43)ccc2F)N=C1N (stereo partly drawn) [Example 35, (6S)-2-Amino-6-(2-fluoro-5-(5-fluoro-2,3-dihydro-1H-inden-1-ylamino)phenyl)-3,5,5,6-tetramethyl-5,6-dihydropyrimidin-4(3H)-one] | 84 nM |
| CN1C(=O)C(C)(C)[C@@](C)(c2cc(Nc3cc(F)ccc3F)ccc2F)N=C1N [Example 145, (S)-2-Amino-6-[5-(2,5-difluoro-phenylamino)-2-fluoro-phenyl]-3,5,5,6-tetramethyl-5,6-dihydro-3H-pyrimidin-4-one] | 14 nM |
| CN1C(=O)C(C)(C)[C@@](C)(c2cc(NC3CCCN(Cc4ccccc4)C3)ccc2F)N=C1N (stereo partly drawn) [Example 44, (S)-2-Amino-6-[5-(1-benzyl-piperidin-3-ylamino)-2-fluoro-phenyl]-3,5,5,6-tetramethyl-5,6-dihydro-3H-pyrimidin-4-one] | 45 nM |
| CN1C(=O)C(C)(C)[C@@](C)(c2cc(NC(=O)C3(C(F)(F)F)CCC3)ccc2F)N=C1N [Example 4, 1-Trifluoromethyl-cyclobutanecarboxylic acid [3-((S)-2-amino-1,4,5,5-tetramethyl-6-oxo-1,4,5,6-tetrahydro-pyrimidin-4-yl)-4-fluoro-phenyl]-amide] | 85 nM |
| COc1cc(F)ccc1Nc1ccc(F)c([C@@]2(C)N=C(N)N(C)C(=O)C2(C)C)c1 [Example 82, (S)-2-Amino-6-(2-fluoro-5-(4-fluoro-2-methoxyphenylamino)phenyl)-3,5,5,6-tetramethyl-5,6-dihydropyrimidin-4(3H)-one] | 135 nM |
| CN1C(=O)C(C)(C)[C@@](C)(c2cc(NC3CCCC3Cl)ccc2F)N=C1N (stereo partly drawn) [Example 30, (6S)-2-Amino-6-(5-(2-chlorocyclopentylamino)-2-fluorophenyl)-3,5,5,6-tetramethyl-5,6-dihydropyrimidin-4(3H)-one] | 33 nM |

Next, values leading:

| IC50 | Structure (SMILES) |
| --- | --- |
| 217 nM | COc1cc(F)c(F)cc1Nc1ccc(F)c([C@@]2(C)N=C(N)N(C)C(=O)C2(C)C)c1 [Example 102, (S)-2-Amino-6-[5-(4,5-difluoro-2-methoxy-phenylamino)-2-fluoro-phenyl]-3,5,5,6-tetramethyl-5,6-dihydro-3H-pyrimidin-4-one] |
| 977 nM | CN1C(=O)C(C)(C)[C@@](C)(c2cc(NC3CCC(CC(=O)O)C3)ccc2F)N=C1N (stereo partly drawn) [Example 115, 2-(3-(3-((S)-2-Amino-1,4,5,5-tetramethyl-6-oxo-1,4,5,6-tetrahydropyrimidin-4-yl)-4-fluorophenylamino)cyclopentyl)acetic acid] |
| 101 nM | CN1C(=O)C(C)(C)[C@@](C)(c2cc(NCc3ncccn3)ccc2F)N=C1N [Example 85, (S)-2-Amino-6-{2-fluoro-5-[(pyrimidin-2-ylmethyl)-amino]-phenyl}-3,5,5,6-tetramethyl-5,6-dihydro-3H-pyrimidin-4-one] |
| 57 nM | CN1C(=O)C(C)(C)[C@@](C)(c2cccc(NC(=O)C3(C#N)CC3)c2)N=C1N [Example 1, 1-Cyano-cyclopropanecarboxylic acid [3-((R)-2-amino-1,4,5,5-tetramethyl-6-oxo-1,4,5,6-tetrahydro-pyrimidin-4-yl)-phenyl]-amide] |
| 426 nM | CN1C(=O)C(C)(C)[C@@](C)(c2cc(NC3CCC(C(F)(F)F)CC3)ccc2F)N=C1N (stereo partly drawn) [Example 41, (S)-2-amino-6-(2-fluoro-5-(4-(trifluoromethyl)cyclohexylamino)phenyl)-3,5,5,6-tetramethyl-5,6-dihydropyrimidin-4(3H)-one] |
| 10 nM | CN1C(=O)C(C)(C)[C@@](C)(c2cc(NCC3CC3(F)F)ccc2F)N=C1N (stereo partly drawn) [Example 58, (S)-2-Amino-6-{5-[(2,2-difluoro-cyclopropylmethyl)-amino]-2-fluoro-phenyl}-3,5,5,6-tetramethyl-5,6-dihydro-3H-pyrimidin-4-one] |
| 274 nM | CN1C(=O)C(C)(C)[C@@](C)(c2cc(NC(=O)CC3CCCC3)ccc2F)N=C1N [Example 26, (S)—N-(3-(2-amino-1,4,5,5-tetramethyl-6-oxo-1,4,5,6-tetrahydropyrimidin-4-yl)-4-fluorophenyl)-2-cyclopentylacetamide] |
| 236 nM | CN1C(=O)C(C)(C)[C@@](C)(c2cc(NCc3ccon3)ccc2F)N=C1N [Example 86, (S)-2-Amino-6-{2-fluoro-5-[(isoxazol-3-ylmethyl)-amino]phenyl}-3,5,5,6-tetramethyl-5,6-dihydro-3H-pyrimidin-4-one] |
